Measurements reported in patent US6258790A, “Antisense modulation of integrin α4 expression” (Isis Pharmaceuticals, Inc., priority 1999, dated 2001).

Test system: human integrin α4
Assay: Inhibition of human integrin α4 protein levels by antisense oligonucleotides (LIPOFECTIN, flow cytometry with CD49d-FITC) in A375 melanoma cells
Assay type: cell-based
Parameters: % Inhib.: tested at 200 nM
Details: for % Control (integrin α4 protein) / % Inhib (integrin α4 protein): Table 1, 200 nM oligonucleotide, 6 ug/ml LIPOFECTIN; for inhibition (Example 11): Example 11 assay, dose not stated; for % CONTROL 48 hr / % INHIB 48 hr / % CONTROL 72 hr / % INHIB 72 HR: Table 2, A375
From the text: Integrin α4 protein levels can be quantitated in a variety of ways well known in the art, such as immunoprecipitation, Western blot analysis (immunoblotting), ELISA or fluorescence-activated cell sorting (FACS). Antibodies directed to integrin α4 can be identified and obtained from a variety of sources, such as the MSRS catalog of antibodies (Aerie Corporation, Birmingham, Mich.), or can be prepared via conventional antibody generation methods.
Target sites are indicated by nucleotide numbers, as given in the sequence source reference (GenBank accession no. L12002), to which the oligonucleotide binds. All compounds in Table 1 are 18 nucleotides in length, with a phosphorothioate backbone and a centered 10-base deoxynucleotide gap flanked by 2'-methoxyethoxy (2'MOE) wings. Human A375 melanoma cells (American Type Culture Collection, Manassas, Va.) were plated at 2000 cells/cm^2 two days before oligonucleotide treatment. Cells were treated with oligonucleotides at a dose of 200 nM oligonucleotide and 6 ug/ml LIPOFECTIN for four hours. Cells were incubated overnight and harvested with 2 mM EDTA in PBS. Cells were washed in 2% bovine serum albumin, 0.2% sodium azide in D-PBS at 4° C. Cells were centrifuged at 200×g, and the supernatant was decanted. […] Antibodies were incubated with the cells for 30 minutes at 4° C. in the dark, under gentle agitation. Cells were washed again as above and then resuspended in 0.3 ml of FacsFlow buffer with 0.5% formaldehyde. Cells were analyzed on Becton Dickinson FACScan. Results are expressed as percentage of control expression based on mean fluorescence intensity.
Cells were harvested with trypsin at 48 and 72 hours after oligonucleotide treatment and stained with 2 ug/ml CD49d-FITC as in the previous example.
Where backbones are mixed, linkages are shown as "s" for phosphorothioate (P=S or PS) and "o" for phosphodiester (P=O or PO). Where target region is indicated as `M62841,` oligonucleotides are targeted to the promotor region whose sequence is described in GenBank Accession No. M62841. Remaining oligonucleotides are targeted to the sequence described in Genbank Accession No. L12002 and their target sites on the L12002 sequence are indicated.
Target sites refer to nucleotide numbers on the target sequence (GenBank Accession No. L12002) to which the oligonucleotides hybridize.
Oligonucleotides were synthesized as "gapmers" consisting of a 9-nucleotide region of deoxynucleotides flanked by three 2'-O-methoxyethyl(2'-MOE) nucleotides on the 5' end and eight 2'-MOE nucleotides on the 3' end. 2'-MOE nucleotides are shown in bold in the table. Oligonucleotides were synthesized with phosphorothioate backbones throughout, and all cytosines are 5-methylcytosines.

[1] = Table 24, A375 cells, lipofectin, as Example 8

Substance: 24454 (TTCTTTTACTCAGTTCTG; chemistry not given here) [compound 24454]
- % Control (integrin α4 protein) (A375 cells): 53%
- % Inhib (integrin α4 protein) (A375 cells): 47%

Substance: 24462 (TGGTGCTCTGCATGGGTG; chemistry not given here) [compound 24462]
- % Control (integrin α4 protein) (A375 cells): 65%
- % Inhib (integrin α4 protein) (A375 cells): 35%

Substance: 24459 (GAAAATGACCAGCTCCGA; chemistry not given here) [compound 24459]
- % Control (integrin α4 protein) (A375 cells): 61%
- % Inhib (integrin α4 protein) (A375 cells): 39%

Substance: 24473 (TCAGGGTGGCTTAAAGAA; chemistry not given here) [compound 24473]
- inhibition (Example 11): ≥ 40%
- % Control (integrin α4 protein) (A375 cells): 53%
- % CONTROL 48 hr (50 nM): 77%
- % INHIB 48 hr (50 nM): 23%
- % CONTROL 72 hr (50 nM): 85%
- % INHIB 72 HR (50 nM): 35%
- % CONTROL 48 hr (100 nM): 49%
- % INHIB 48 hr (100 nM): 51%
- % CONTROL 72 hr (100 nM): 77%
- % INHIB 72 HR (100 nM): 23%
- % CONTROL 48 hr (200 nM): 39%
- % INHIB 48 hr (200 nM): 61%
- % CONTROL 72 hr (200 nM): 61%
- % INHIB 72 HR (200 nM): 39%
- % CONTROL 48 hr (400 nM): 42%
- % INHIB 48 hr (400 nM): 58%
- % CONTROL 72 hr (400 nM): 56%
- % INHIB 72 HR (400 nM): 44%
- % Control (Table 6, 10 nM): 103%
- % Control (Table 6, 30 nM): 92%
- % Control (Table 6, 100 nM): 81%
- % Inhib. (Table 6, 100 nM): 19%
- % Control (Table 6, 300 nM): 47%
- % Inhib. (Table 6, 300 nM (highest dose)): 53%

Substance: 26643 (TTGCCCTTATATGAGAAACA; phosphorothioate, 2'-MOE, 5-methyl-C, further chemistry not given here) [compound 26643]
- % Control (Table 4, 10 nM): 90%
- % Inhib. (Table 4, 10 nM): 10%
- % Control (Table 4, 30 nM): 95%
- % Control (Table 4, 100 nM): 93%
- % Control (Table 4, 300 nM): 66%
- % Inhib. (Table 4, 300 nM (highest dose)): 34%

Substance: 24447 (GTGGCTGTGCAGCACGAC; chemistry not given here) [compound 24447]
- % Control (integrin α4 protein) (A375 cells): 76%
- % Inhib (integrin α4 protein) (A375 cells): 24%

Substance: 24466 (TTGTCAATGTCGCCAAGA; chemistry not given here) [compound 24466]
- % Control (integrin α4 protein) (A375 cells): 64%
- % Inhib (integrin α4 protein) (A375 cells): 36%

Substance: 24455 (TCACATAATCTTGATAAC; chemistry not given here) [compound 24455]
- % Control (integrin α4 protein) (A375 cells): 81%
- % Inhib (integrin α4 protein) (A375 cells): 19%

Substance: 24470 (TATCTGCATCAATTTGTC; chemistry not given here) [compound 24470]
- % Control (integrin α4 protein) (A375 cells): 83%
- % Inhib (integrin α4 protein) (A375 cells): 17%

Substance: 24440 (CGGGTGCTCGCGCTGCTT; chemistry not given here) [compound 24440]
- % Control (integrin α4 protein) (A375 cells): 101%

Substance: 26641 (GAGCTTATTTTCATTCTTTA; phosphorothioate, 2'-MOE/deoxy, further chemistry not given here) [compound 26641]
- inhibition (Example 11): ≥ 40%
- % Control (Table 6, 10 nM): 88%
- % Inhib. (Table 6, 10 nM): 12%
- % Control (Table 6, 30 nM): 85%
- % Inhib. (Table 6, 30 nM): 15%
- % Control (Table 6, 100 nM): 67%
- % Inhib. (Table 6, 100 nM): 33%
- % Control (Table 6, 300 nM): 31%
- % Inhib. (Table 6, 300 nM (highest dose)): 69%

Substance: 24472 (CTTGTCCTTAGCAAGACA; chemistry not given here) [compound 24472]
- % Control (integrin α4 protein) (A375 cells): 65%
- % Inhib (integrin α4 protein) (A375 cells): 35%

Substance: 107257 (antisense TGAAATGAACCTCTGCCCAC; chemistry not given here) [compound 107257]
- % Control [1]: 44%

Substance: 24453 (GCTTATTTTCATTCTTTA; chemistry not given here) [compound 24453]
- inhibition (Example 11): ≥ 40%
- % Control (integrin α4 protein) (A375 cells): 47%
- % CONTROL 48 hr (50 nM): 79%
- % INHIB 48 hr (50 nM): 21%
- % CONTROL 72 hr (50 nM): 78%
- % INHIB 72 HR (50 nM): 22%
- % CONTROL 48 hr (100 nM): 95%
- % CONTROL 72 hr (100 nM): 93%
- % CONTROL 48 hr (200 nM): 38%
- % INHIB 48 hr (200 nM): 62%
- % CONTROL 72 hr (200 nM): 64%
- % INHIB 72 HR (200 nM): 36%
- % CONTROL 48 hr (400 nM): 41%
- % INHIB 48 hr (400 nM): 59%
- % CONTROL 72 hr (400 nM): 58%
- % INHIB 72 HR (400 nM): 42%
- % Control (Table 6, 10 nM): 88%
- % Inhib. (Table 6, 10 nM): 12%
- % Control (Table 6, 30 nM): 90%
- % Inhib. (Table 6, 30 nM): 10%
- % Control (Table 6, 100 nM): 80%
- % Inhib. (Table 6, 100 nM): 20%
- % Control (Table 6, 300 nM): 43%
- % Inhib. (Table 6, 300 nM (highest dose)): 57%

Substance: 24469 (GTCCAAACATACTTAACG; chemistry not given here) [compound 24469]
- % Control (integrin α4 protein) (A375 cells): 68%
- % Inhib (integrin α4 protein) (A375 cells): 32%

Substance: 24468 (CCATCTGCACGGCCATTG; chemistry not given here) [compound 24468]
- % Control (integrin α4 protein) (A375 cells): 72%
- % Inhib (integrin α4 protein) (A375 cells): 28%

Substance: 24458 (CCTAAATAACTTCCAAAT; chemistry not given here) [compound 24458]
- % Control (integrin α4 protein) (A375 cells): 88%
- % Inhib (integrin α4 protein) (A375 cells): 12%

Substance: 107240 (antisense AGAGTTATCTGTGACTTCAC; chemistry not given here) [compound 107240]
- % Control [1]: 40%

Substance: 24457 (TTATTTGTAGTTATATTG; chemistry not given here) [compound 24457]
- % Control (integrin α4 protein) (A375 cells): 106%

Substance: 24465 (TGCAGCATATTTGTCACT; chemistry not given here) [compound 24465]
- % Control (integrin α4 protein) (A375 cells): 63%
- % Inhib (integrin α4 protein) (A375 cells): 37%

Substance: 107251 (antisense CCTTGCATGAAGACATAATA; chemistry not given here) [compound 107251]
- % Control [1]: 40%

Substance: 107233 (antisense ATGCGACGGTTGGCCAACGG; chemistry not given here) [compound 107233]
- % Control [1]: 57%
- % Inhib. [1]: 43%

Substance: 24439 (CTCCGTCTCTGCCTACGC; chemistry not given here) [compound 24439]
- % Control (integrin α4 protein) (A375 cells): 120%

Substance: 24456 (CCCATCACAATTAAATCC; chemistry not given here) [compound 24456]
- % Control (integrin α4 protein) (A375 cells): 76%
- % Inhib (integrin α4 protein) (A375 cells): 24%

Substance: 107242 (antisense TGAGATCAACAGAAGTACAA; chemistry not given here) [compound 107242]
- % Control [1]: 44%
